This note sets out measurements from ChEMBL document CHEMBL1145642, “Farnesyl pyrophosphate synthase enantiospecificity with a chiral risedronate analog, [6,7-dihydro-5H-cyclopenta[c]pyridin-7-yl(hydroxy)methylene]bis(phosphonic acid) (NE-10501): Synthetic, structural, and modeling studies” (Bioorg Med Chem Lett, 2008).

The target of this assay is T1, Farnesyl pyrophosphate synthase (Homo sapiens, UniProt P14324).
T1 sequence (P14324 whole entry): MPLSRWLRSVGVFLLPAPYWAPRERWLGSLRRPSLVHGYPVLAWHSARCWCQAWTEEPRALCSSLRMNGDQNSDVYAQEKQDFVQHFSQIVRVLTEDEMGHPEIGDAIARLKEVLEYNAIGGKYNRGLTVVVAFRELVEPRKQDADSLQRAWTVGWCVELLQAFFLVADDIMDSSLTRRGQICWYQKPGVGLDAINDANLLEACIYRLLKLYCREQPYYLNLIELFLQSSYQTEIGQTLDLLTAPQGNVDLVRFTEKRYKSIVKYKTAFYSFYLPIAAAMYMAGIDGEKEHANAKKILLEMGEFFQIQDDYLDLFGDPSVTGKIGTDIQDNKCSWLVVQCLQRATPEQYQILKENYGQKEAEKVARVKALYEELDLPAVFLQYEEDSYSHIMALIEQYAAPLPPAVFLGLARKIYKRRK

As usually defined, the IC50 is the concentration that inhibits the measured activity by half. As to `O=P(O)(O)C(O)(C1CCc2ccncc21)P(=O)(O)O` (stereo unspecified), the midpoint of inhibition, the IC50, lay at 630 nM.
